Among the data in ChEMBL document CHEMBL5696441 (Nat Chem Biol, 2011) are Activity values, retold here.

The subject of assay [1] is Mast/stem cell growth factor receptor Kit (Homo sapiens), P10721 [L576P]. Description: Inhibition of KIT L576P mutant (unknown origin) assessed as remaining activity at 1 uM by Kinome scan method relative to control.
The target in assay [2] is Serine/threonine-protein kinase SBK1 (Homo sapiens) (UniProt Q52WX2). Nature of the assay: Inhibition of SBK1 (unknown origin) assessed as remaining activity at 1 uM by Kinome scan method relative to control.
The target of assay [3] is T1, Inhibitor of nuclear factor kappa-B kinase subunit alpha (Homo sapiens) (UniProt O15111).
T1 sequence (whole entry): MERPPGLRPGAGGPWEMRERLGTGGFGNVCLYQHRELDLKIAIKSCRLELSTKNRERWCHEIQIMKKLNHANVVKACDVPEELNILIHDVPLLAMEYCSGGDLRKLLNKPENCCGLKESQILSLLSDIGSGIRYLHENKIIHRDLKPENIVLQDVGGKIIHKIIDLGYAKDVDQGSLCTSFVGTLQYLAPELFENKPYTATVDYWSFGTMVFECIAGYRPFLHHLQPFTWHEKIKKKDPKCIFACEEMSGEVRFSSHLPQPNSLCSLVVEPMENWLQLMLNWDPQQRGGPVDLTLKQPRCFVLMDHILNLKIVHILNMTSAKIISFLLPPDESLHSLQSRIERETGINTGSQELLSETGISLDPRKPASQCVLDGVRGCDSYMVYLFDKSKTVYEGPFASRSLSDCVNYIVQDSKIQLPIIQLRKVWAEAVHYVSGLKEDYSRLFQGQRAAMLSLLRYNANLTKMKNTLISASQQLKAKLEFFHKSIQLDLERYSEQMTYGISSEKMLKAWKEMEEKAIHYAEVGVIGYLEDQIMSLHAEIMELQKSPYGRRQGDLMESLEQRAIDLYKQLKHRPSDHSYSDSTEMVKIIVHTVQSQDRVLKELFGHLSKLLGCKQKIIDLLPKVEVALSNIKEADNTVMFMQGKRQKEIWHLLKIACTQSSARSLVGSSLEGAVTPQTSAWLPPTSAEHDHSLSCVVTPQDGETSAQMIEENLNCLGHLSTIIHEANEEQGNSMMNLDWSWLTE
Description: Inhibition of human IKKalpha assessed as residual activity at 1 uM using RBER-CHKtide as substrate in presence of 33P-ATP by ProQinase assay relative to control.

In assay [4] the target is Mitogen-activated protein kinase kinase kinase 20 (Homo sapiens) (UniProt Q9NYL2). Nature of the assay: Inhibition of human ZAK assessed as residual activity at 1 uM using MBP as substrate in presence of 33P-ATP by ProQinase assay relative to control.
Assay [5] concerns the target Protein-tyrosine kinase 2-beta (Homo sapiens) (UniProt Q14289). Description: Inhibition of human PYK2 assessed as residual activity at 1 uM using polyEY as substrate in presence of 33P-ATP by ProQinase assay relative to control.
Assay [6] deals with T2, MAP/microtubule affinity-regulating kinase 4 (Homo sapiens) (UniProt Q96L34).
T2 sequence (whole entry): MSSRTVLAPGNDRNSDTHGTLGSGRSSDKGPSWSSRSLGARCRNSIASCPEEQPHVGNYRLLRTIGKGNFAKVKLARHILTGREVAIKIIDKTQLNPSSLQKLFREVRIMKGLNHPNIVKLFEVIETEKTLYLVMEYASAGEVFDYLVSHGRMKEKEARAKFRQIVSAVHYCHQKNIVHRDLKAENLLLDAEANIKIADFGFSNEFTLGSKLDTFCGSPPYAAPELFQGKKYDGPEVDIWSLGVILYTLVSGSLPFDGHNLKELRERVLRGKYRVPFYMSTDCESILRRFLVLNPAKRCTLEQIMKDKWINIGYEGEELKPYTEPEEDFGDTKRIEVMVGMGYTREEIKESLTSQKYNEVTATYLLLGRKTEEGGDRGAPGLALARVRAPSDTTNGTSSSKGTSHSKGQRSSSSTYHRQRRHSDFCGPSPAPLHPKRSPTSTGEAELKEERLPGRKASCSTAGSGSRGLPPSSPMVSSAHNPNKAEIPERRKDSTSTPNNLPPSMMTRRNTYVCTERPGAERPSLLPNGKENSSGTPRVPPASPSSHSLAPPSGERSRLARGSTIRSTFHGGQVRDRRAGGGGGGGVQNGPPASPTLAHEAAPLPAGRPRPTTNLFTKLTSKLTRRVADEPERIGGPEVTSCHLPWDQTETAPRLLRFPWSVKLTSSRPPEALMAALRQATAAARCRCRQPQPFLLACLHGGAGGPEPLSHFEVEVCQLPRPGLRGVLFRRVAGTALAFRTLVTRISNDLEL
Description: Inhibition of human MARK4 assessed as residual activity at 1 uM using RBER-CHKtide as substrate in presence of 33P-ATP by ProQinase assay relative to control.

Assay [7] addresses Serine/threonine-protein kinase MRCK alpha (Homo sapiens) (UniProt Q5VT25). Description: Inhibition of MRCKA (unknown origin) assessed as remaining activity at 1 uM by Kinome scan method relative to control.
Assay [8] concerns the target Ribosomal protein S6 kinase alpha-6 (Homo sapiens) (UniProt Q9UK32). Nature of the assay: Inhibition of C-terminal kinase domain RPS6KA6 (unknown origin) assessed as remaining activity at 1 uM by Kinome scan method relative to control.
Assay [9] concerns the target Receptor-interacting serine/threonine-protein kinase 1 (Homo sapiens) (UniProt Q13546). Description: Inhibition of RIPK1 (unknown origin) assessed as remaining activity at 1 uM by Kinome scan method relative to control.
Assay [10] deals with Serine/threonine-protein kinase Sgk1 (Homo sapiens) (UniProt O00141). Description: Inhibition of human SGK1 assessed as residual activity at 1 uM using RBER-GSK3(14-27) as substrate in presence of 33P-ATP by ProQinase assay relative to control.
Assay [11] deals with Protein kinase C alpha type (Homo sapiens) (UniProt P17252). Nature of the assay: Inhibition of human PKCalpha assessed as residual activity at 1 uM using 3xChocktide-PKC(19-31) as substrate in presence of 33P-ATP by ProQinase assay relative to control.
Assay [12] addresses Ephrin type-B receptor 1 (Homo sapiens) (UniProt P54762). Nature of the assay: Inhibition of EPHB1 (unknown origin) assessed as remaining activity at 1 uM by Kinome scan method relative to control.
The test system of assay [13] is Epidermal growth factor receptor (Homo sapiens), P00533 [G719C]. Description: Inhibition of human EGFR G719C mutant assessed as residual activity at 1 uM using PolyEY as substrate in presence of 33P-ATP by ProQinase assay relative to control.
Assay [14] deals with Serine/threonine-protein kinase PRP4 homolog (Homo sapiens) (UniProt Q13523). Nature of the assay: Inhibition of PRP4 (unknown origin) assessed as remaining activity at 1 uM by Kinome scan method relative to control.
Assay [15] concerns the target Epidermal growth factor receptor (Homo sapiens) (UniProt P00533). Nature of the assay: Inhibition of human EGFR assessed as residual activity at 1 uM using PolyEY as substrate in presence of 33P-ATP by ProQinase assay relative to control.

Sequence of Mitogen-activated protein kinase kinase kinase 20 (Homo sapiens) (Q9NYL2 2-800 limits assumed): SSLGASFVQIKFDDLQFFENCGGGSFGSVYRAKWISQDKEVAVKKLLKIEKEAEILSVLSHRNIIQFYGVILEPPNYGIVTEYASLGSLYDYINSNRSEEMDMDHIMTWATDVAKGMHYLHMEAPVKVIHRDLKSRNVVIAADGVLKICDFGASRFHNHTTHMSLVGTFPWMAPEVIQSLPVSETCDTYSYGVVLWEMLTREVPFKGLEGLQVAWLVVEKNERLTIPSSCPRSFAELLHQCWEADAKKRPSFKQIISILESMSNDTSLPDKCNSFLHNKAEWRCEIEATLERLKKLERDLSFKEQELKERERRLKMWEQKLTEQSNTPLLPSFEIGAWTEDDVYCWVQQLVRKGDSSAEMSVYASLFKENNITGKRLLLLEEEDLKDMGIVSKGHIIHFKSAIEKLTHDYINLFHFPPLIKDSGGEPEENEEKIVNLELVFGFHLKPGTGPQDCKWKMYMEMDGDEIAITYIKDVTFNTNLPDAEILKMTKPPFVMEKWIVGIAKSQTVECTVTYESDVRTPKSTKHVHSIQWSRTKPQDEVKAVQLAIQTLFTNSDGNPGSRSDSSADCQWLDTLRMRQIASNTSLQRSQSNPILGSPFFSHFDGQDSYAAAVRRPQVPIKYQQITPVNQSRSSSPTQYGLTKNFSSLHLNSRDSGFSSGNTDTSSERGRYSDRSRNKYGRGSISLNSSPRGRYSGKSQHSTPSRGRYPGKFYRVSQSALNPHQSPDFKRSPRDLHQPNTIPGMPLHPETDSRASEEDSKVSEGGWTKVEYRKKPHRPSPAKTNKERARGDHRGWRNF
Sequence of Ribosomal protein S6 kinase alpha-6 (Homo sapiens) (Q9UK32 whole entry, the tested form may be a part): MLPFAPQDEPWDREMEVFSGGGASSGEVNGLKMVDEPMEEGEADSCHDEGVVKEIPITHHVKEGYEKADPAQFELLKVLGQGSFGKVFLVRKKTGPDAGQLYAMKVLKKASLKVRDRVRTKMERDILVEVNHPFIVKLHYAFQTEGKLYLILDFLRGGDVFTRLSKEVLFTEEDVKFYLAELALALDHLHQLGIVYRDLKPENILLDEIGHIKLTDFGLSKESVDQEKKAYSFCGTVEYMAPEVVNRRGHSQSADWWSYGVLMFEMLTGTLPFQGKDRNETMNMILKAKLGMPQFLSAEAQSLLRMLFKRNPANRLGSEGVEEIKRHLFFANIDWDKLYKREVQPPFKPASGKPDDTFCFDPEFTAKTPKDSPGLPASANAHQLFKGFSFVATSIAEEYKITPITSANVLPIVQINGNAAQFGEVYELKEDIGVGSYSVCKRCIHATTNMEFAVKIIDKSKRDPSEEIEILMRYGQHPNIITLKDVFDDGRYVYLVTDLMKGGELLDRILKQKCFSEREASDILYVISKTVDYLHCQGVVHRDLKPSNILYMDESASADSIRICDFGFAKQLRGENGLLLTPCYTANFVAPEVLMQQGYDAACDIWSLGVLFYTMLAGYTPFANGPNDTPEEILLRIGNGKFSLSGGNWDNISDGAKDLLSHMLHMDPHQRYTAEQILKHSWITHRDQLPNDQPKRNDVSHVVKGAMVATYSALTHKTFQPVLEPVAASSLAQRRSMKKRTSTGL
Sequence of Serine/threonine-protein kinase SBK1 (Homo sapiens) (Q52WX2 whole entry): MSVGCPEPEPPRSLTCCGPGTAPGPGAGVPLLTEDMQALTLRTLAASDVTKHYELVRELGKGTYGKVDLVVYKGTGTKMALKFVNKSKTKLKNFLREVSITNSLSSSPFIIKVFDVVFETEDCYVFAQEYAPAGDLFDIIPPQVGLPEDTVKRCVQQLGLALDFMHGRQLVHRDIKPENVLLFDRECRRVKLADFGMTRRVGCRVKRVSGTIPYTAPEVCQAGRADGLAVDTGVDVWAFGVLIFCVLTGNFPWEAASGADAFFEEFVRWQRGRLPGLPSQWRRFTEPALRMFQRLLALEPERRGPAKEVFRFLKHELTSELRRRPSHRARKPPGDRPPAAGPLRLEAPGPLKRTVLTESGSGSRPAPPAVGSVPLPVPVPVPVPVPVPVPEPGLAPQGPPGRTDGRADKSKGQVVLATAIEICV
Sequence of Serine/threonine-protein kinase MRCK alpha (Homo sapiens) (Q5VT25 whole entry, the tested form may be a part): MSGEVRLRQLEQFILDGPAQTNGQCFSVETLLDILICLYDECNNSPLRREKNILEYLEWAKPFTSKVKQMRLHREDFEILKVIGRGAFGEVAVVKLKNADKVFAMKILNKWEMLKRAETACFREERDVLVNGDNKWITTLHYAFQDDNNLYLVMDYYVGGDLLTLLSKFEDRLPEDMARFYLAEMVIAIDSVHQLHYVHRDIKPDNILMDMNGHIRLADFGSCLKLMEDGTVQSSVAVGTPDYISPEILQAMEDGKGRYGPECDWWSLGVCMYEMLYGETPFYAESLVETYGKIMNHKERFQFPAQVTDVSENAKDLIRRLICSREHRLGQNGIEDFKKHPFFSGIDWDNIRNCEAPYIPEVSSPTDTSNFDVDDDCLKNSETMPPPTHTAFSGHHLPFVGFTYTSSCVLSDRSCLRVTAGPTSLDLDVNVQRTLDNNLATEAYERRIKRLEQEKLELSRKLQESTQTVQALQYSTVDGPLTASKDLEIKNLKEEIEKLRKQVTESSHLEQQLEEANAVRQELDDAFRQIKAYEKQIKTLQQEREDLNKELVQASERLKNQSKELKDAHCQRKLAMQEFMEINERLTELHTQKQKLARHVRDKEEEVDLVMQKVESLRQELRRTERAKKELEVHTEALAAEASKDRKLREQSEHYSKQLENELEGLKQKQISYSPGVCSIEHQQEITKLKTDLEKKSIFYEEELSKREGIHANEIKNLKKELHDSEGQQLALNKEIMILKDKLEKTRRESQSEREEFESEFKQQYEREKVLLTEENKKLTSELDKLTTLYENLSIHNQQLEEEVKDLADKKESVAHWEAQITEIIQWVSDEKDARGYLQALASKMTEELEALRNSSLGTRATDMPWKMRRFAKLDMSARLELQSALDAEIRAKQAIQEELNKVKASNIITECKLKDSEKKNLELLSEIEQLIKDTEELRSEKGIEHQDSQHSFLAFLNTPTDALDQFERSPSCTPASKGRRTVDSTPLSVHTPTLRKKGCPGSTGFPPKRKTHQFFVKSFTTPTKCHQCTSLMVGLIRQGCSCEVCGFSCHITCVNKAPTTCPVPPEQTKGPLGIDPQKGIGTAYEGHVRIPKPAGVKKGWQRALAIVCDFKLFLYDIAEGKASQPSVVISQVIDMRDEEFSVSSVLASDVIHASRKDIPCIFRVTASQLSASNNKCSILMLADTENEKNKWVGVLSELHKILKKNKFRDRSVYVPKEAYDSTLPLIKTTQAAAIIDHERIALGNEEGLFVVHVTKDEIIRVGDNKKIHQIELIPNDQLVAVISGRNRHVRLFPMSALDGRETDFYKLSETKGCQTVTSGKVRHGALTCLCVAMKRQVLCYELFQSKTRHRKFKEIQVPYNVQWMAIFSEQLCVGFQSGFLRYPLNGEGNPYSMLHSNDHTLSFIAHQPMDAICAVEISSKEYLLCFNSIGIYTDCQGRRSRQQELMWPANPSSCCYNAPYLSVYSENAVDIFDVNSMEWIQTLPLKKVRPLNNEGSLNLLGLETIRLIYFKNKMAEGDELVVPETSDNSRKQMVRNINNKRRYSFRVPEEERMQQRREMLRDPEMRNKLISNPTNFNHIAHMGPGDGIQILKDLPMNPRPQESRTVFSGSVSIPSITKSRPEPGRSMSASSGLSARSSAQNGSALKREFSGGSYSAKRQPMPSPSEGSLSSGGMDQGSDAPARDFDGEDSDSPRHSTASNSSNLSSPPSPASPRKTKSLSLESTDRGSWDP
Sequence of Receptor-interacting serine/threonine-protein kinase 1 (Homo sapiens) (Q13546 whole entry): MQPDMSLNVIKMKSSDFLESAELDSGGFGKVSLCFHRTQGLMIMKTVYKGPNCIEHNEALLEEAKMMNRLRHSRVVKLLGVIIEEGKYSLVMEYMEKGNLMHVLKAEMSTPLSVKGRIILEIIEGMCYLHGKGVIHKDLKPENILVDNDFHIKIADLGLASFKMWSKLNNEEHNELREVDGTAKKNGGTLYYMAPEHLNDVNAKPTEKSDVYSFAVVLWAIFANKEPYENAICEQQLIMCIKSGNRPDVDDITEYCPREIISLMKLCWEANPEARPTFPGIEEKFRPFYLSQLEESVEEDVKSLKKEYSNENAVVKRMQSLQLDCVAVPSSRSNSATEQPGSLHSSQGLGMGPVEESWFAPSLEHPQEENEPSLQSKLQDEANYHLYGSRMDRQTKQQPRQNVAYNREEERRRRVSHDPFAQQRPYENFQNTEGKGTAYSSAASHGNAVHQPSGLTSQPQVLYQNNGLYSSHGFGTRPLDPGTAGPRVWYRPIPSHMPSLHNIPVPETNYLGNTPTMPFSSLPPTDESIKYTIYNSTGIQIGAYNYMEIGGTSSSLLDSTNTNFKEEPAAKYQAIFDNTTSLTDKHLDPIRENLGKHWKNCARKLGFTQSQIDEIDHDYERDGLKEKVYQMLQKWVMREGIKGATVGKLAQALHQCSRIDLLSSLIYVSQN

With `O=C1c2ccc(Nc3ccc(F)cc3F)cc2CCc2ccc(OC[C@H](O)CO)cc21` [Skepinone-L], the Activity in [1] was found to be 98%; in assay [2], 100%; in assay [3], 88%; in [4], 98%; in assay [5], 102%; in assay [6], 96%. Moreover, the Activity is 100% in assay [7]; 77% in assay [8]; 100% in [9]; 90% in assay [10]; 96% in assay [11]; 98% in [12]. Besides, the Activity stood at 74% in assay [13], 100% in assay [14] and 94% in assay [15].
